Measured values taken from patent US6221865A, “Inhibitors of protein isoprenyl transferases” (priority 1998, dated 2001).
Where a name gives a salt, the structure may show the parent alone.

Target: T1, protein farnesyltransferase (Rattus norvegicus, UniProt Q02293+Q04631)
T1 construct: The enzyme is purified according to Reiss, Y., et al., Cell, 62: 81-88 (1990), utilizing steps one through three; from tissue; host or cells: rat brain
Assay: Inhibition of farnesyltransferase (scintillation proximity assay, rat brain enzyme, biotin-K Ras B fragment substrate)
Format: biochemical
Conditions: 1 × 10^-5 M (Table 1)
Outline: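 Enzyme from rat brain, partly purified (steps one to three), assayed by SPA kit using 0.1 mM final biotin-K Ras B peptide as prenyl acceptor rather than biotin-lamin. Activity given as percent inhibition.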

T1 sequence (Q02293 whole entry, one chain of several): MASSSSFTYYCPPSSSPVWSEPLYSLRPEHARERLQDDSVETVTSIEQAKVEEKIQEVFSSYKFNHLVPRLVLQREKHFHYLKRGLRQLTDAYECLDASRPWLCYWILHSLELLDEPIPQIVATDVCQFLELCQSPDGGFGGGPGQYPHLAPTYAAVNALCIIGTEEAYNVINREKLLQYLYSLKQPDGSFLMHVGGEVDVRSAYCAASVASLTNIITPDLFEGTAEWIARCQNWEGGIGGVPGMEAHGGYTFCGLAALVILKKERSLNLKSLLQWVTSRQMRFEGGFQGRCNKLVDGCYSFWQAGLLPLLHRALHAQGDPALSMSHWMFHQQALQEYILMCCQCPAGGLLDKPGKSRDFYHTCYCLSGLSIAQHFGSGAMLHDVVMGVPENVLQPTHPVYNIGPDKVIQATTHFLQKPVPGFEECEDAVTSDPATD

SMILES | % inhibition of farnesyltransferase at 1 × 10^-5 M [%]
CSCC[C@H](NC(=O)c1ccc(CNCCCN2CCOCC2)cc1-c1ccccc1)C(=O)O [Example 377] | 71
CSCC[C@H](NC(=O)c1ccc(CNc2cccc(C)c2)cc1-c1ccccc1)C(=O)O [Example 674] | 40
CSCC[C@H](NC(=O)c1ccc(CNc2cc(C(C)(C)C)[nH]n2)cc1-c1ccccc1)C(=O)O [Example 381] | 79
CCN(Cc1ccc(C(=O)N[C@@H](CCSC)C(=O)O)c(-c2ccccc2)c1)Cc1cc([N+](=O)[O-])ccc1O [Example 711] | 46
CSCC[C@H](NC(=O)c1ccc(CNc2cccc(CCC(=O)O)c2)cc1-c1ccccc1)C(=O)O [Example 685] | 55
CCn1cc(NCc2ccc(C(=O)N[C@@H](CCSC)C(=O)O)c(-c3ccccc3)c2)c(=O)n1CC [Example 364] | 69

Next, values leading:

% inhibition of farnesyltransferase at 1 × 10^-5 M [%] | SMILES
68 | CSCC[C@H](NC(=O)c1ccc(CNc2ccc(-c3ccccc3)cc2)cc1-c1ccccc1)C(=O)O [Example 700]
74 | CSCC[C@H](NC(=O)c1ccc(CNc2ccc(C(C)C)cc2)cc1-c1ccccc1)C(=O)O [Example 692]

Same assay, conditions: 1 × 10^-6 M (Table 2)

SMILES | % inhibition of farnesyltransferase at 1 × 10^-6 M [%]
COc1ccc(CNCc2ccc(C(=O)N[C@@H](CCSC)C(=O)O)c(-c3ccccc3)c2)c(OC)c1 [Example 655] | 35
CSCC[C@H](NC(=O)c1ccc(NC(=O)[C@@H]2CSCN2)cc1-c1ccccc1)C(=O)O [Example 165] | 74
CCSC[C@H](CC1CCCCC1)NCc1ccc(C(=O)N[C@@H](CCSC)C(=O)O)c(-c2ccccc2C)c1 [Example 403] | 99
CSCC[C@H](NC(=O)c1ccc(OC/C=C/c2ccccc2)cc1-c1ccccc1C)C(=O)O [Example 560] | 91
CSCC[C@H](NC(=O)c1ccc(NCC(CO)(Cc2ccccc2)Cc2ccccc2)cc1-c1ccccc1C)C(=O)O [Example 475] | 21
CSCC[C@H](NC(=O)c1ccc(COC2CCN(Cc3ccccc3)CC2)cc1-c1ccccc1C)C(=O)O [Example 807] | 90
CSCC[C@H](NC(=O)c1ccc(COC2(c3ccccc3)CCN(C(=O)OC(C)(C)C)CC2)cc1-c1ccccc1C)C(=O)[O-].[Li+] [Example 816] | 87
CSCC[C@H](NC(=O)c1ccc(NC(=O)Cc2nccs2)cc1-c1ccccc1)C(=O)O [Example 163] | 18

Next, values leading:

% inhibition of farnesyltransferase at 1 × 10^-6 M [%] | SMILES
85 | CSCC[C@H](NC(=O)c1ccc(CS(=O)(=O)Cc2ccccc2)cc1-c1ccccc1C)C(=O)O [Example 555]
95 | CSCC[C@H](NC(=O)c1ccc(COCC(CC2CCCCC2)CC2CCCCC2)cc1-c1ccccc1C)C(=O)O [Example 889]
99 | CSCC[C@H](NC(=O)c1ccc(CNC(CC2CCCCC2)C(O)C(O)CC(C)C)cc1-c1ccccc1C)C(=O)O (stereo partly shown) [Example 528]
88 | CSCC[C@H](NC(=O)c1ccc(CS[C@H](CO)Cc2ccccc2)cc1-c1ccccc1)C(=O)O [Example 545]
95 | CSCC[C@H](NC(=O)c1ccc(CN(Cc2cncs2)S(C)(=O)=O)cc1-c1ccccc1C)C(=O)O [Example 878]
95 | CSCC[C@H](NC(=O)c1ccc(NC(=O)c2cnccc2C(F)(F)F)cc1-c1ccccc1C)C(=O)O [Example 481]
42 | CSCC[C@H](NC(=O)c1ccc(CN(C(=O)c2ccccc2)C(CC2CCCCC2)CC2CCCCC2)cc1-c1ccccc1C)C(=O)O [Example 910]

Same assay, conditions: 1 × 10^-7 M (Table 3)

SMILES | % inhibition of farnesyltransferase at 1 × 10^-7 M [%]
CSCC[C@H](NC(=O)c1ccc(COC2CCC(NC(=O)OC(C)(C)C)CC2)cc1-c1ccccc1C)C(=O)[O-].[Li+] (stereo partly shown) [Example 817] | 60
CCCCC(OCc1ccc(C(=O)N[C@@H](CCSC)C(=O)[O-])c(-c2ccccc2C)c1)c1ccco1.[Li+] (stereo partly shown) [Example 825] | 79
CSCC[C@H](NC(=O)c1ccc(CNCCc2c[nH]c3ccccc23)cc1-c1ccccc1C)C(=O)O [Example 519] | 89
CSCC[C@H](NC(=O)c1ccc(COCc2ccc(C)cc2)cc1-c1ccccc1C)C(=O)[O-].[Li+] [Example 579] | 92
CSCC[C@H](NC(=O)c1ccc(COCCc2ccc(Cl)cc2)cc1-c1ccccc1C)C(=O)[O-].[Li+] [Example 590] | 95
CSCC[C@H](NC(=O)c1ccc(CNc2ccc(N3CCOCC3)cc2)cc1-c1ccccc1C)C(=O)O [Example 863] | 72
COc1ccccc1N(Cc1ccccc1)Cc1ccc(C(=O)N[C@@H](CCSC)C(=O)O)c(-c2ccccc2C)c1 [Example 839] | 63
CSCC[C@H](NC(=O)c1ccc(COCc2ccc(-c3cccc(C(F)(F)F)c3)o2)cc1-c1ccccc1C)C(=O)[O-].[Li+] [Example 441] | 91

Continued, values first:

% inhibition of farnesyltransferase at 1 × 10^-7 M [%] | SMILES
83 | CSCC[C@H](NC(=O)c1ccc(CSc2ccccc2C(C)C)cc1-c1ccccc1C)C(=O)O [Example 739]
78 | CCCCN(CCCC)Cc1ccc(C(=O)N[C@@H](CCSC)C(=O)O)c(-c2ccccc2C)c1 [Example 917]
81 | CSCC[C@H](NC(=O)c1ccc(COc2cccc3ccccc23)cc1-c1ccccc1C)C(=O)O [Example 574]

Same assay, conditions: 1 × 10^-8 M (Table 4)

SMILES | % inhibition of farnesyltransferase at 1 × 10^-8 M [%]
CSCC[C@H](NC(=O)c1ccc(CN(Cc2ccccc2)c2cccc(SC)c2)cc1-c1ccccc1C)C(=O)[O-].[Li+] [Example 851] | 82
CSCC[C@H](NC(=O)c1ccc(COCc2cnc(-c3ccccc3Cl)s2)cc1-c1ccccc1C)C(=O)[O-].[Li+] [Example 897] | 76
CSCC[C@H](NC(=O)c1ccc(CN(Cc2ccccc2)c2ccc(Cl)cc2)cc1-c1ccccc1C)C(=O)O [Example 848] | 87

More lines, now with the values ahead:

% inhibition of farnesyltransferase at 1 × 10^-8 M [%] | SMILES
91 | CSCC[C@H](NC(=O)c1ccc(CO[C@H](CSC(C)(C)C)CC2CCCCC2)cc1-c1ccccc1C)C(=O)O [Example 883]
79 | CSCC[C@H](NC(=O)c1ccc(CN(C(C)=O)C(CC2CCCCC2)CC2CCCCC2)cc1-c1ccccc1C)C(=O)O [Example 909]

Same assay, conditions: read-out: % inhibition at 0.01 μM (**); Table 6, ** = 0.01 μM (footnote); title prints 0.01 mM

SMILES | inhibition at 0.01 µM [%]
CSCC[C@H](NC(=O)c1ccc(Cc2nnn(CC3CCCCC3)n2)cc1-c1ccccc1C)C(=O)O [Example 1102, N-[4-(2cyclohexylmethyltetrazol-5-ylmethyl)-2-(2-methylphenyl)benzoyl]methionine] | 84

Same assay, conditions: read-out: % inhibition at 0.1 μM (*); Table 6, * = 0.1 μM (footnote); title prints 0.1 mM

SMILES | inhibition at 0.1 µM [%]
COC1CC(COCc2ccccc2)N(Cc2ccc(C(=O)N[C@@H](CCSC)C(=O)O)c(-c3ccccc3C)c2)C1 (stereo partly shown) [Example 1121, N-[4-(2-benzyloxymethyl-4-methoxypyrrolidin-1-ylmethyl)-2-(2-methylphenyl)benzoyl]methionine] | 72

Same assay, conditions: read-out: % inhibition of farnesyltransferase at 1 × 10^-6 M; 1 × 10^-6 M (Table 2)

SMILES | inhibition at 1 µM [%]
CSCC[C@H](NC(=O)c1ccc(CCc2ccccc2-c2ccccc2)cc1-c1ccccc1C)C(=O)O [Example 452, N-[4-(2-(2-phenylphenyl)ethyl)-2-(2-methylphenyl)benzoyl]methionine lithium salt] | 96
CSCC[C@H](NC(=O)c1ccc(C=CCCCc2ccccc2)cc1-c1ccccc1C)C(=O)O [Example 480, N-[4-(5-phenylpent-1-enyl)-2-(2-methylphenyl)benzoyl]methionine] | 87
CSCC[C@H](NC(=O)c1ccc(N2CC(=O)NNC2=O)cc1-c1ccccc1)C(=O)O [Example 224] | 41
CSCC[C@H](NC(=O)c1ccc(CCc2cccc(-c3ccccc3)c2)cc1-c1ccccc1C)C(=O)O [Example 793, N-[4-(2-(3-phenylphenyl)ethyl)-2-(2-methylphenyl)benzoyl]methionine lithium salt] | 94
CSCC[C@H](NC(=O)c1ccc(/C=C/c2ccc(Oc3ccccc3)nn2)cc1-c1ccccc1C)C(=O)O [Example 810, N-[4-(2-(3-phenoxypyridazin-6-yl)ethen-1-yl)-2-(2-methylphenyl)benzoyl]methionine lithium salt] | 89

Further lines, results first:

inhibition at 1 µM [%] | SMILES
31 | CSCC[C@H](NC(=O)c1ccc(CN(C)C(CC2CCCCC2)C(=O)N2CCOCC2)cc1-c1ccccc1C)C(=O)O (stereo partly shown) [Example 302]
32 | CSCC[C@H](NC(=O)c1ccc(S(=O)(=O)NCCN2CCOCC2)cc1-c1ccccc1C)C(=O)O [Example 775, lithium salt]
23 | CSCC[C@H](NC(=O)c1ccc(CN2CCC(O)C2)cc1-c1ccccc1)C(=O)O (stereo partly shown) [Example 291]
88 | CSCC[C@H](NC(=O)c1ccc(CN2CCCC(OCc3ccccc3)C2)cc1-c1ccccc1C)C(=O)O (stereo partly shown) [Example 989, N-[4-(3-benzyloxypiperidin-1-ylmethyl)-2-(2-methylphenyl)benzoyl]methionine]

Same assay, conditions: read-out: % inhibition of farnesyltransferase at 1 × 10^-7 M; 1 × 10^-7 M (Table 3)

SMILES | inhibition at 0.1 µM [%]
CSCC[C@H](NC(=O)c1ccc(/C=C/c2ccc(Oc3cccc([N+](=O)[O-])c3)cc2)cc1-c1ccccc1C)C(=O)O [Example 861, N-[4-(2-(4-(3-nitrophenoxy)phenyl)ethen-1-yl)-2-(2-methylphenyl)benzoyl]methioziine] | 65
CSCC[C@H](NC(=O)c1ccc(/C=C/c2ccc(Oc3ccccc3[N+](=O)[O-])cc2)cc1-c1ccccc1C)C(=O)O [Example 856, N-[4-(2-(4-(2-nitrophenoxy)phenyl)ethen-1-yl)-2-(2-methylphenyl)benzoyl]methionine] | 97
